# Data published in patent US5843916A, “Cyclic amp analogues, individually and in pairs, to inhibit neoplastic cell growth” (priority 1994, dated 1998).
# Like-named read-outs stand apart in the source and are kept apart here.
# What was measured:
# cells = assay: Growth inhibition by 8-Cl-AMP; assay type: cell-based; settings: as high as 100 μM
# [1] = system: LS-174T colon cancer line; assay: Growth and release from growth inhibition (FIG. 3); assay type: cell-based, human; settings: 5 μM
# Description: 1×10^5 cells/60 mm dish were seeded, and 24 hours later (Day 0), the medium was removed and fresh medium and additives were added then and every 48 hours thereafter. […] The triplicate cell count for each experimental point never varied by more than 10%.
# [2] = system: c-myc protein, Molt-4 leukemic cells; assay: Western blotting of c-myc protein (FIG. 9B); assay type: cell-based, human; settings: three days; 8-Cl-cAMP 5 μM, DBcAMP 1 mM, 8-Cl-adenosine 5 μM
# Description: The cells were grown in suspension culture in RPMI 1640 medium supplemented with 10% fetal bovine serum, penicillin (50 U/ml), streptomycin (500 μg/mL), 10 mM HEPES buffer, and extra glutamine. […] Surface antigen analysis of HL-60 cells was performed by flow cytometry using a panel of monoclonal antibodies reactive with either myeloid cells or monocytic cells. Terminal deoxynucleotidyl transferase (TdT) was assayed by an immunoperoxidase method using a TdT fluorescence kit. Western blotting of c-myc protein was performed using c-myc antibody 15206D11 (Scripps Clinic and Research Foundation, LaJolla, Calif.).
# M, marker proteins of known molecular weight. […] The resulting supernatants were used as cell lysates. […] ND=nondetectable.
# [3] = system: RI cAMP receptor protein, Molt-4 leukemic cells; assay: Photoaffinity labelling of RI cAMP receptor protein (FIG. 9A); assay type: cell-based, human; settings: three days; 8-Cl-cAMP 5 μM, DBcAMP 1 mM, 8-Cl-adenosine 5 μM
# [4] = system: p21 ras protein, MCF-7 cells; assay: Western blotting of p21 ras protein (Table 11, FIG. 7); assay type: cell-based, human
# Description: Western blotting of p21 protein was performed as described below. […] V is cell lysate from Ha-MuSV-transformed NIH3T3 clone 13-3B-4. M, marker proteins of known molecular weight.
# Each lane contained 100 micrograms of protein for SDS-PAGE.
# Cellular proteins present in cell extracts were separated by 12% SDS-PAGE and transferred to nitrocellulose sheets in transfer buffer (25 mM Tris, 192 mM glycine, 20% methanol, pH 7.4). Nitrocellulose sheets were washed and first incubated with 3% bovine serum albumin in NTE-NP40 (50 mM Tris-HCl, pH 7.5, 150 mM NaCl, 2 mM EDTA, 0.1% Nonidet P-40) for three hours at 37° C. and then sequentially incubated with medium containing p21 monoclonal antiserum Y13-259 directed against the Ha-MuSV-encoded p21 for sixteen hours at 4° C., rabbit anti-rat IgG for 2.5 hours in an ice water bath, and 5×10^5 cpm/ml ^125 I-protein A for one hour in an ice water bath. The nitrocellulose sheets were air dried and exposed to Kodak XAR film for 12-36 hours at -20° C. Comparison of the resulting autoradiograms with others in which normal rat serum was substituted for p21 monoclonal antibody permitted identification of p21. To provide a reference p21, cell lysates were prepared from NIH 3T3 clone 13-3B-4 that had been transfected with HaMuSV DNA.
# The levels of p21 protein are expressed relative to the p21 level in the untreated control cells which is set equal to 1.0 O.D.
# LS-174T = assay: Cell cycle analysis by flow cytometry (Table 3); assay type: cell-based, human; settings: 5 μM; 3 days
# Description: (§1) DNA histograms were generated on FACS II by using the DNA intercalating dye propidium iodide as described by Braylan et al. in Cytometry 2: 337-343, 1982. The percentage of cells in each cycle phase was calculated by using a PDP-11/34 computer and software as described by Neckers et al., Mol. Cell. Biol. 6: 4244-4250, 1986.
# (§2) Breast (MCF-7, MDA-MB-231) and colon (LS-174T) cancer cells in log
# (§3) phase (untreated control) and 3 days after treatment with 8-C1-cAMP
# (§4) (10 μM), N^6 -benzyl-cAMP (35 μM), and 8-Cl-adenosine (5
# (§5) were analyzed for DNA content by flow cytometric analysis as described
# (§6) below. Similar results were obtained with other breast and colon cancer
# ^a The paired numbers were derived from two separate experiments.
# MCF-7 = assay: Growth of MCF-7 cells (Tables 3, 11); assay type: cell-based; settings: Homo sapiens, MCF7, 72 h, Table 11; 8-Cl-cAMP 10 μM, 8-Cl-adenosine 5 μM, DBcAMP 500 μM; control 100
# Description: (§7) All breast cancer cell lines were grown in IMEM supplemented with 10% fetal bovine serum, HEPES 20 mM, penicillin-streptomycin, and extra glutamine. Colon carcinoma cell lines were grown in EMEM supplemented with 10% FBS, EMEM, NEAA, HEPES 20 mM, extra glutamine, and penicillin-streptomycin. The cells were grown at 37° C. in humidified incubators in an atmosphere of 5% CO2.
# (§8) For cell growth experiments, 2-3×10^5 cells/60 mm dish were seeded, and 24 hours later (Day 0), the medium was removed, and fresh medium and the additives were added then and every 48 hours thereafter. The compounds of the present invention were added using 100X concentrated stock solutions. At desired times, cell counts in duplicate were performed on a Coulter counter after harvesting the cells with gentle trypsinization.
# [5] = system: RI and RII cAMP receptor proteins, breast (MDA-MB-231) and colon (LS-174T) cancer cells; assay: cAMP receptor protein levels, breast and colon cancer cells (FIG. 6); assay type: cell-based, human
# Description: (§9) Photoactivated incorporation of 8-N3 [^32 P] was performed as described below.
# (§10) M is marker proteins of known molecular weight.
# The incubations were carried out at 23° C. for 60 minutes in 96-well immunoplates. […] The gels were fixed, dried, and exposed to X-ray films overnight.
# [6] = system: breast and colon cancer lines (MCF-7, T-47D, ZR-75-1, MCF-7ras, MDA-MB-231, BT-20, HBL-100, LS-174T, WiDr, HT-29); assay: Growth inhibition of breast and colon cancer lines (FIG. 1); assay type: cell-based, human; settings: densitometry text
# [7] = system: four leukemic cell lines (HL-60, K-562, myc-K562, Molt-4); assay: Growth inhibition of leukemic cell lines; assay type: cell-based, human; settings: Homo sapiens; leukemic cell lines, range
# HL-60 = assay: Growth inhibition of leukemic cells (Table 12); assay type: cell-based; settings: Homo sapiens
# MDA-MB-231 [8] = assay: Cell cycle analysis by flow cytometry (Table 3); assay type: cell-based, human; settings: 35 μM; 3 days
# Description: as §1, §2, §3, §4, §5, §6
# myc-K562 = assay: Growth inhibition of leukemic cells (Table 12); assay type: cell-based; settings: Homo sapiens
# Molt-4 = assay: Growth inhibition of leukemic cells (Table 12); assay type: cell-based, human; settings: Homo sapiens, MOLT-4; read-out: Inhibition of Growth IC50, Molt-4
# [9] = system: breast (MCF-7) and colon (LS-174T) cancer cell lines; assay: Growth inhibition of breast and colon cancer cells (Table 1); assay type: cell-based, human; settings: Homo sapiens
# Description: The compounds of the present invention were added using 100X concentrated stock solutions. At desired times, cell counts in duplicate were performed on a Coulter counter after harvesting the cells with gentle trypsinization. […] Cell counts were performed on each of three or more separate experiments, and the average values are expressed as percent growth inhibition as compared with untreated control cells. | ^a The values of percentage growth inhibition were determined from th | doseresponse curve experiments. Each value represents an average value an | range (in parentheses) obtained from three or more separate experiments. | The cell counts in duplicate were performed at day 3 and day 4 after two | treatments (day 0 and day 2) with analogs (seeding on day -1).
# MDA-MB-231 [10] = assay: Growth of MDA-MB-231 cells (Tables 3, 10); assay type: cell-based; settings: Homo sapiens, MDA-MB-231, 72 h, 3 days, control 100 (Table 3)
# Description: as §7, §8
# HL-60 Cells = assay: Cell cycle kinetics of HL-60 cells (Table 17); assay type: cell-based, human; settings: 10 μM, 96 hours
# Description: Briefly, cells were fixed in 70% ethanol and stored at 4° C. before analysis. Nuclear DNA was stained with propidium iodide, 50 μg/ml in phosphate-buffered saline (pH 7.4), for 30 minutes at room temperature. RNase was added to avoid double-helix RNA staining. The DNA content of cells was analyzed by a FACScan flow cytometer coupled with a Hewlett-Packard computer. Cell cycle data analysis was performed by a Cell-FIT program according to the method of Dean (Cell Tissue Kinet. 13: 299-308 (1980)) (Becton Dickinson Immunocytometry Systems). Pulse area versus pulse width gating was performed to exclude doublets from the G2 -M region. For each sample, 20,000 events were stored in list mode. Cell surface antigen analysis was performed by flow cytometry with FACScan using a panel of monoclonal antibodies reactive with either monocytic or myeloid cells.
# [11] = system: RI and RII cAMP receptor proteins, MDA-MB-231; assay: Photoaffinity labelling of cAMP receptor proteins (Table 10, FIG. 6); assay type: cell-based, human; settings: 3 days, 8-Cl and N^6-benzyl 10 μM, dibutyryl 1 mM
# Description: as §9, §10
# (§11) Each lane contained 50 micrograms protein for SDS-PAGE.
# (§12) The incubations were carried out at 23° C. for 60 minutes in 96-well immunoplates. The reaction mixtures were then irradiated for 30 seconds at 254 nm, placing a Mineralite UVS-11 hand lamp directly onto the plate. The samples were mixed with 25 microliters of 3× sample buffer (3% SDS, 15% beta-mercaptoethanol, 30 mM Tris, 30% glycerol, 1% bromophenol blue saturated solution), boiled for 3 minutes, and centrifuged at 700 × g for five minutes. The samples containing 10-30 micrograms of protein were subjected to 0.05% SDS-12% PAGE. The gels were fixed, dried, and exposed to X-ray films overnight. The protein concentrations were determined by the method of Lowry et al., J. Biol. Chem. 193: 265-275, 1951, with bovine serum albumin as standard.
# (§13) The levels of the receptor proteins are expressed relative to the RI level in the untreated control cells of MDA-MB-231 and LS-174T which are each set equal to 1.0 O.D.; the scale was expanded to differentiate the lower intensity bands.
# [12] = system: RI and RII cAMP receptor proteins, LS-174T; assay: as above; assay type: cell-based, human; settings: 3 days, 8-Cl and N^6-benzyl 10 μM, dibutyryl 1 mM
# Description: as §9, §10, §11, §12, §13
# [13] = system: breast and colon cancer cells; assay: Effect on cell morphology (FIG. 2); assay type: cell-based, human
# Text: The photographs were taken on Day 4, ×160.
# Furthermore, the synergistic growth inhibitory effect of C-6 and C-8 analogue combinations was also reflected in the change in the cell morphology.
# K-562 = assay: Growth inhibition of leukemic cells (Table 12); assay type: cell-based; settings: Homo sapiens, K562
smiles,measurement,setting,value
Nc1ncnc2c1nc(Cl)n2[C@@H]1O[C@H](COP(=O)(O)O)[C@@H](O)[C@H]1O [8-Cl-AMP],growth inhibition,cells,no appreciable growth inhibition
Nc1ncnc2c1nc(Cl)n2[C@@H]1O[C@H](CO)[C@@H](O)[C@H]1O [8-Cl-adenosine],cell growth after release from treatment,[1],did not resume their growth up to two weeks after the release from the treatment
same,cell growth during treatment,[1],marked reduction in cell growth and eventually stopped replicating within three to four days
same,c-myc protein level,[2],not observed
same,RI receptor protein level,[3],not observed
same,p21 (Relative Level),"[4]; 3 days, 8-Cl-cAMP 10 μM, 8-Cl-adenosine 5 μM, DBcAMP 500 μM, control = 1.0 O.D.",1.0 ± 0.1
same,p21 level,[4]; three days,did not appreciably affect the p21 level
same,cell cycle phase distribution,LS-174T,appreciable increase of the cell population in G1 phase with a marked reduction in S-phase
same,activity at 5 µM,MCF-7,38%
O=P1(O)OC[C@H]2O[C@@H](n3cnc4c(NCc5ccccc5)ncnc43)[C@H](O)[C@@H]2O1 [N^6 -benzyl-cAMP],decrease in the RI level,[5]; densitometric tracings,70-80%
same,increase in the ratio of RII to RI,[5]; densitometric tracings,two- to three-fold increase
same,RI and RII receptor levels,"[5]; three days, FIG. 6","the cAMP receptor protein with a molecular weight of 52,000 increased appreciably with concomitant decrease of the 48,000 RI receptor protein"
same,growth inhibition of cancer lines,[6],45-70%
same,IC50,[7],10 to 30 µM
same,IC50,HL-60,20 µM
same,% Cell Population in G1,MDA-MB-231 [8],60%
same,% Cell Population in G2M,MDA-MB-231 [8],15%
same,% Cell Population in S,MDA-MB-231 [8],25%
same,cell cycle phase distribution,MDA-MB-231 [8],not appreciably different
same,IC50,myc-K562,30 µM
same,IC50,Molt-4,10 µM
same,inhibition at 50 µM,"[9]; 72 h, 50 μM, day 3, average (range), read-out: % Growth Inhibition, Day 3",56%
same,inhibition at 50 µM,"[9]; 96 h, 50 μM, day 4, average (range), read-out: % Growth Inhibition, Day 4",70%
same,inhibition at 50 µM,"[9]; 50 micromolar, read-out: growth inhibition",30 to 70%
same,activity at 35 µM,MDA-MB-231 [10],45%
same,% G2 M,HL-60 Cells; control 8.3,9.6%
same,% G0-G1,HL-60 Cells; control 45.7,44.4%
same,% S,HL-60 Cells; control 46,46%
same,RII/RI,[11],0.28
same,relative level of RI,[11]; control RI = 1.0 O.D.,0.25 ± 0.03
same,relative level of RII,[11]; control RI = 1.0 O.D.,0.07 ± 0.01
same,RII/RI,[12],1.25
same,relative level of RI,[12]; control RI = 1.0 O.D.,0.20 ± 0.02
same,relative level of RII,[12]; control RI = 1.0 O.D.,0.25 ± 0.02
same,cell morphology,"[13]; 0.5 μM alone, four days",did not induce a change in the cell morphology
same,cell morphology,"[13]; 50 μM, three to four days",induced the morphological change
same,IC50,K-562,27 µM
